Test results published in patent publication US12589099B2 (priority 2021, dated 2026).

How the values were obtained:
Type in all cases: in vivo, male Wistar rats
[1] = tested on: moderate traumatic brain injury (TBI) induced by controlled cortical impact (CCI); assay: Morris water maze (MWM) test after TBI
Description: FIG. 2: The figure illustrates functional tests that are carried out on healthy (sham surgery) no treatment, vehicle treated and ALPHA-1062 treated rats to assess sensorimotor and cognitive function after TBI. Sensimotor function tests. a) The figure depicts tests to assess the modified neurological severity score (mNSS). […] The animal is required to balance over a grid and the frequency of steps missing the grid are counted. This test assesses the functionality of the injured parietal cortex of the rat's brain. c) The adhesive removal test consists of applying adhesive tape on each forepaw of the animal and measuring the time-to-contact and the time-to-remove them. This behavior requires correct paw and mouth sensitivity (time-to-contact) and correct dexterity (time-to-remove). Cognitive function tests: a) This picture illustrates the Morris water maze that comprises that a rat is placed in a large circular pool (picture on the left) and is required to find an invisible platform that allows it to escape the water by using various visuo-spatial cues. This test is used to study spatial learning and memory and assesses hippocampal and select cortical brain region function. Usually, the path of the rat through the pool is tracked (picture on the right) and the time spend in the proximity of the platform as well as the time needed until the platform is found by the rat are measured. b) For the new/novel object recognition (NOR) test, after a habituation time in the test space (picture on far left) rats are given the opportunity to explore two identical objects (A) for a predetermined period of time (picture in the middle). After a delay, the animals are then presented with two objects to explore, one of which is the same as in the first exploration trial (A), the other a new object (B) (picture on the right). Depending on the length of the delay between the two trials or depending on the extend of cortical damage, the rats will either explore the novel object for a greater time period, indicating memory for the familiar object, or will explore the novel and familiar objects for the same amount of time, indicating a lack of recall or loss of memory for the familiar object presented during the initial trial.
(§1) Young adult (2-3 months) male Wistar rats were subjected to a moderate traumatic brain injury (TBI) induced by controlled cortical impact (CCI). Animal models of TBI including the CCI model and functional tests have been described in detail in peer reviewed publications (Xiong et al., 2013, Nat Rev Neurosci.; Zhang et al., 2016, J Neurosurg.; Zhang et al., 2016, Neurochem Int.; Zhang et al., 2021, J Neurotrauma). Injury consisted of a single impact at 4.0 m/sec, 2.5 mm deformation to the left parietal cortex. In addition, a group of animals was left healthy/not injured to serve as a healthy control.
(§2) The animals were divided into 3 groups: • 1) TBI+Vehicle (purified water, n=10) • 2) TBI+ALPHA-1062 (4.5 mg/kg) (n=10) • 3) Healthy/not injured and not treated (Sham surgery) (n=10)
(§3) The substance used in this study was ALPHA-1062 at 4.5 mg/kg. As control treatment (vehicle) purified water was administered intranasally (IN). The ALPHA-1062 and the control treatment were initiated 2 hours after injury and continued twice daily (with a 6-hour interval) for 35 consecutive days.
During the in vivo part of the study cognitive functional tests were performed by conducting Morris water maze (MWM) tests and novel object recognition tests on all animals at 5 weeks after TBI, with the MWM test being performed on days 31-35 following TBI (see Table 1).
The Morris water maze (MWM) is a test used in behavioral neuroscience to study spatial learning and memory, for example in rats. It enables spatial learning and memory to be studied, and can also be used to assess damage to hippocampus and select cortical regions of the brain. […]

[2] = Body weight over the 35-day TBI study (overt toxicity); conditions: 4.5 mg/kg IN twice daily
Excerpt: as §1, §2, §3

[3] = tested on: moderate traumatic brain injury (TBI) induced by controlled cortical impact (CCI); assay: Lesion volume and hippocampal structure (H&E) 35 days post-TBI; conditions: 4.5 mg/kg IN twice daily, 35 days after TBI
Excerpt: as §1, §3
Histological assessment was performed including quantitative image analysis protocols; followed by statistical analysis of the data. Histology: All rats were sacrificed after the last Morris water maze (MWM) test 35 days after TBI for the following histological analyses: lesion volume (H&E), neuronal cell loss in injured cortex and hippocampus (NeuN), doublecortin (DCX, neuroblasts), NeuN/BrdU (newborn neurons), pathological p-Tau (AT8) and total Tau IHC. […]

[4] = 4.5 mg/kg IN twice daily, days 33 to 35

## COc1ccc2c3c1O[C@H]1C[C@@H](OC(=O)c4ccccc4)C=C[C@@]31CCN(C)C2 [ALPHA-1062, (4aS,6R,8aS)-5,6,9,10,11,12-hexahydro-3-methoxy-11-methyl-4aH-[1]benzofuro[3a,3,2-ef][2]benzazepin-6-ol benzoate]
[1]; [4]
  MWM % time in the correct quadrant, compared to uninjured (sham surgery) animals: equivalent amount of time
  MWM % time in the correct quadrant, compared to vehicle: statistically significantly better
  MWM latency to find the hidden escape platform, compared to uninjured (sham) animals: as well as the uninjured (sham) animals
  MWM latency to find the hidden escape platform, compared to vehicle: statistically significantly better
[1]; rats after TBI, ALPHA-1062 treatment compared to healthy sham animals
  Morris Water Maze (MWM), performance over SHAM: equivalent to
[1]; rats after TBI, ALPHA-1062 treatment compared to vehicle treatment
  Morris Water Maze (MWM), performance over VEHICLE: superior
[2]; 35 days, compared to vehicle animals
  overt toxicity: did not show overt toxicity
[2]; each time point D0-D35, P>0.05
  body weight compared to vehicle treated or untreated animals: no significant alterations in body weight
[2]; within group
  body weight compared to day zero (D0), days 29-35: significant body weight gain
[2]; within group, p<0.05
  body weight compared to day zero (D0), days 1-7: significant body weight loss
[3]
  hippocampal structure on the injured side of the brain: preservation of hippocampal structure
[3]; vs vehicle
  lesion volume: significant (p<0.05) reduction of lesion volume
